{"source": "paper PMC11456921", "about": "(RSC Advances, 2024)", "key": {"[1]": {"system": "MCF-7 human breast carcinoma cell line", "test": "In vitro anti-proliferative assay, sulforhodamine-B", "assay_type": "cell-based", "conditions": "single concentration 100 μg mL^−1, 48 h, SRB; mean ± SD"}, "[2]": {"system": "HEp-2 human laryngeal carcinoma cell line", "test": "In vitro anti-proliferative assay, SRB method, HEp-2", "assay_type": "cell-based", "conditions": "for IC50: Homo sapiens, HEp-2, 48 h, read-out: IC50 against HEp-2; for HEp-2 (% inhibition): single concentration 100 μg mL^−1, 48 h, SRB, mean ± SD"}, "CDK2/cyclin A": {"target": "CDK2/cyclin A (Homo sapiens, UniProt P24941)", "assay_type": "biochemical"}, "GSK3β": {"target": "GSK3β (Homo sapiens, UniProt P49841)", "sequence (P49841 whole entry)": "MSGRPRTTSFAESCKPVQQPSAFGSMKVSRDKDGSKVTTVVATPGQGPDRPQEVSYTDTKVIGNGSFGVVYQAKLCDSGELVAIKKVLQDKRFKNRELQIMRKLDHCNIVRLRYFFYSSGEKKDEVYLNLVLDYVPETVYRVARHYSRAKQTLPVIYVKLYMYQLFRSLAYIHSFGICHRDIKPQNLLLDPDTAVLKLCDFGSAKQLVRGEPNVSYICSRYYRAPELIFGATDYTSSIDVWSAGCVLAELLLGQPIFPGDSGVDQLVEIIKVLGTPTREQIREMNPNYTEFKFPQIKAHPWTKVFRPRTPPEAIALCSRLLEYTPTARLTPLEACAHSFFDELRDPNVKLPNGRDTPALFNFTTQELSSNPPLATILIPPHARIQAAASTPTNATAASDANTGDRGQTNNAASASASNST", "assay_type": "biochemical"}, "[3]": {"system": "Vero normal African green monkey kidney cell line", "test": "In vitro anti-proliferative assay, SRB method, normal Vero cells", "assay_type": "cell-based", "conditions": "single concentration 100 μg mL^−1, 48 h, mean ± SD"}, "HEp-2 cells [4]": {"system": "HEp-2 cells", "test": "Total nitrate/nitrite", "assay_type": "cell-based, human", "conditions": "HEp-2, treated with IC50 for 48 h"}, "HEp-2 cells [5]": {"system": "HEp-2 cells", "test": "Reduced glutathione", "assay_type": "cell-based, human", "conditions": "HEp-2, treated with IC50 for 48 h"}, "[6]": {"system": "HepG2 human hepatocellular carcinoma cell line", "test": "In vitro anti-proliferative assay, SRB method, HepG2", "assay_type": "cell-based"}, "HepG2 cells [7]": {"system": "HepG2 cells", "test": "Total nitrate/nitrite", "assay_type": "cell-based, human", "conditions": "HepG2, treated with IC50 for 48 h"}, "HepG2 cells [8]": {"system": "HepG2 cells", "test": "Reduced glutathione", "assay_type": "cell-based, human", "conditions": "HepG2, treated with IC50 for 48 h"}, "HepG2 cells [9]": {"system": "HepG2 cells", "test": "Cell cycle analysis by flow cytometry", "assay_type": "cell-based, human", "conditions": "HepG2, 9.5 μg mL^−1 (IC50), 24 h"}, "HepG2 cells [10]": {"system": "HepG2 cells", "test": "Apoptosis detection, annexin V-FITC/PI flow cytometry", "assay_type": "cell-based, human", "conditions": "HepG2, 9.5 μg mL^−1 (IC50), 24 h; DMSO control 1.18%"}}, "data": [{"smiles": "C/C(=N\\N=C1/NC(=O)/C(=C\\c2ccc(Cl)cc2)S1)c1ccccn1", "note": "[10a, (E)-5-((E)-4-Chlorobenzylidene)-2-(((E)-1-(pyridin-2-yl)ethylidene)hydrazono)thiazolidin-4-one]", "values": [{"measurement": "MCF-7 (% inhibition)", "setting": "[1]", "result": "71.32 ± 3.4", "unit": "%"}]}, {"smiles": "C/C(=N\\NC(N)=S)c1ccccn1", "note": "[1a, (E)-2-(1-(pyridin-2-yl)ethylidene)hydrazine-1-carbothioamide]", "values": [{"measurement": "IC50", "setting": "[2]", "result": 7.5, "unit": "µg/mL"}, {"measurement": "HEp-2 (% inhibition)", "setting": "[2]", "result": "79.91 ± 0.7", "unit": "%"}, {"measurement": "IC50", "setting": "CDK2/cyclin A", "result": 16700, "unit": "nM"}, {"measurement": "Roscovitine inhibitory activity against CDK2/cyclin A relative to the compound", "setting": "CDK2/cyclin A; from IC50 values of Table 2", "result": "more than 3.5 times"}, {"measurement": "IC50", "setting": "GSK3β", "result": 2250, "unit": "nM"}, {"measurement": "GSK3β inhibitory activity compared with CHIR-99021", "setting": "GSK3β; from IC50 values of Table 2", "result": "the reference drug showing nearly six times its inhibitory activity"}]}, {"smiles": "CC(=O)C1S/C(=N/N=C(\\C)c2ccccn2)NC1=O", "note": "(stereo not shown) [8a, (E)-5-Acetyl-2-(((E)-1-(pyridin-2-yl)ethylidene)hydrazono)thiazolidin-4-one]", "values": [{"measurement": "IC50", "setting": "[2]", "result": 5.9, "unit": "µg/mL"}, {"measurement": "HEp-2 (% inhibition)", "setting": "[2]", "result": "78.67 ± 2.5", "unit": "%"}, {"measurement": "Vero (% inhibition)", "setting": "[3]", "result": "44.24 ± 2.8", "unit": "%"}, {"measurement": "IC50", "setting": "CDK2/cyclin A", "result": 2440, "unit": "nM"}, {"measurement": "Stronger inhibitory activity against CDK2/cyclin A compared with roscovitine", "setting": "CDK2/cyclin A; from IC50 values of Table 2", "result": 1.3, "unit": "fold"}, {"measurement": "IC50", "setting": "GSK3β", "result": 485, "unit": "nM"}, {"measurement": "Increase of NOx level compared to untreated cells", "setting": "HEp-2 cells [4]", "result": 19, "unit": "%"}, {"measurement": "Reduction in GSH content compared to untreated cells", "setting": "HEp-2 cells [5]", "result": 14, "unit": "%"}]}, {"smiles": "CCn1c(C)c(C(C)=O)s/c1=N/N=C(\\C)c1ccccn1", "note": "[3b, 1-((E)-3-Ethyl-4-methyl-2-(((E)-1-(pyridin-2-yl)ethylidene)hydrazono)-2,3-dihydrothiazol-5-yl)ethan-1-one]", "values": [{"measurement": "MCF-7 (% inhibition)", "setting": "[1]", "result": "73.52 ± 1.6", "unit": "%"}]}, {"smiles": "C/C(=N\\N=c1/[nH]c(C)c(/N=N/c2ccc(C)cc2)s1)c1ccccn1", "note": "[13a, (E)-4-Methyl-2-(((E)-1-(pyridin-2-yl)ethylidene)hydrazono)-5-((E)-p-tolyldiazenyl)-2,3-dihydrothiazole]", "values": [{"measurement": "IC50", "setting": "[6]; Homo sapiens, HepG2, 48 h, read-out: IC50 against HepG2", "result": 9.5, "unit": "µg/mL"}, {"measurement": "HepG2 (% inhibition)", "setting": "[6]; single concentration 100 μg mL^−1, 48 h, SRB, mean ± SD", "result": "76.56 ± 1.3", "unit": "%"}, {"measurement": "Vero (% inhibition)", "setting": "[3]", "result": "41.81 ± 2.3", "unit": "%"}, {"measurement": "IC50", "setting": "CDK2/cyclin A", "result": 1130, "unit": "nM"}, {"measurement": "Stronger inhibitory activity against CDK2/cyclin A compared with roscovitine", "setting": "CDK2/cyclin A; from IC50 values of Table 2", "result": 2.2, "unit": "fold"}, {"measurement": "IC50", "setting": "GSK3β", "result": 337, "unit": "nM"}, {"measurement": "Increase of NOx level compared to untreated cells", "setting": "HepG2 cells [7]", "result": 25, "unit": "%"}, {"measurement": "Reduction in GSH level compared to untreated cells", "setting": "HepG2 cells [8]", "result": 33, "unit": "%"}, {"measurement": "Cells in G0–G1 phase (%DIP G1)", "setting": "HepG2 cells [9]", "result": 59.62, "unit": "%"}, {"measurement": "Necrotic cells", "setting": "HepG2 cells [10]", "result": 3.25, "unit": "%"}]}, {"smiles": "CCN1C(=O)/C(=C\\c2ccc(F)cc2)S/C1=N/N=C(\\C)c1ccccn1", "note": "[9b, (E)-3-Ethyl-5-((E)-4-fluorobenzylidene)-2-(((E)-1-(pyridin-2-yl)ethylidene)hydrazono)thiazolidin-4-one]", "values": [{"measurement": "MCF-7 (% inhibition)", "setting": "[1]", "result": "70.58 ± 1.8", "unit": "%"}]}, {"smiles": "C/C(=N\\N=C1/NC(=O)C(C)S1)c1ccccn1", "note": "(stereo not shown) [7a, (E)-5-Methyl-2-(((E)-1-(pyridin-2-yl)ethylidene)hydrazono)thiazolidin-4-one]", "values": [{"measurement": "MCF-7 (% inhibition)", "setting": "[1]", "result": "72.79 ± 1.3", "unit": "%"}]}]}
